In US9409952B2, “Peptide-compound cyclization method” (Chugai Seiyaku Kabushiki Kaisha, priority 2011, dated 2016):
Starred links: 1 amine or outer side, 2 acyl side, 3 side chain; linkers in the order of their positions; H or OH if unused. Positions of bridges follow the written chain, without caps; N, C: chain ends. Non-standard residues stand in square brackets, D forms with d. Residues, ends and D or L forms follow the SMILES beside them. *: point of attachment. Cys(O)(CH2CO) = O=C([C@H](C[S+]([O-])CC(=O)[*:3])N[*:1])[*:2]; NMeF = CN[C@@H](Cc1ccccc1)C(=O)O; NMeI = CC[C@H](C)[C@H](NC)C(=O)O; NMeL = CN[C@@H](CC(C)C)C(=O)O; NMeA = CN[C@@H](C)C(=O)O; Piperidide = C1CCN(*)CC1; Sar = CNCC(=O)O; tBu = CC(C)(C)*

Experiments:
Format in all cases: in vitro ADME
[1] = Metabolic stability in mouse small intestinal microsome; details: for Intestinal Microsome CLg, int Mouse: Table 8, mouse; for oxidative metabolic rate relative to the parent thioether, small intestinal microsomes: compared with Compound P-112
Procedure: (§1) The obtained compound was metabolically reacted at a concentration of 2 uM with mouse serum (male/female mixed, Valley Biomedical, USA) (adjusted to pH 7.4 with 33.5 mM HEPES buffer) for two hours. Deproteinization treatment with acetonitrile was provided over time, the amount of the remaining unchanged compound was analyzed using LC/MS, and the metabolic half-life (t1/2) was calculated. A microsome solution prepared at 0.5 mg protein/mL from mouse hepatic microsome and small intestinal microsome (male, XENOTECH, USA) using 100 mM phosphate buffer (pH 7.4) was metabolically reacted with the compound at a concentration of 1 uM for 30 minutes in the presence or absence of NADPH. Deproteinization treatment with acetonitrile was provided over time, the amount of the remaining unchanged compound was analyzed using LC/MS, and the hepatic-intrinsic clearance (CLh, int) and the small intestinal-intrinsic clearance (CLg, int) were calculated (Table 7). Such peptides were sufficiently slowly metabolized by hydrolysis with peptidases or the like in mouse sera and microsomes, contrary to peptides composed of natural amino acids having low lipophilicity.
(§2) Metabolic stability tests were carried out in the same manner as shown in 2-1.

[2] = Metabolic stability in mouse hepatic microsome; details: for Hepatic Microsome CLh, int (Mouse) In the absence of NADPH: without NADPH; for microsomal CLint at 1 uM: male, liver microsomes, pH 7.4; for Mouse Hepatic Microsome CLh, int: Table 9, thioether versus sulfoxide
Procedure: as §1, §2

[3] = Serum stability test in mouse serum; details: both sexes, pH 7.4, two hours, read-out: Serum stability t1/2 (Mouse)
Procedure: as §1

[4] = Metabolic stability in human hepatic microsome; details: for microsomal CLint at 1 uM: pH 7.4, Hepatic Microsome CLhint Human
[5] = 0.5 mg protein/mL, 1 uM, 30 minutes
[6] = mouse, 0.5 mg protein/mL, 1 uM, 30 minutes, with NADPH, read-out: Hepatic Microsome CLh, int (Mouse) In the presence of NADPH

SMILES	Intestinal Microsome CLg, int Mouse [1]	Hepatic Microsome CLh, int (Mouse) In the absence of NADPH [2, 5]	Hepatic Microsome CLhint Mouse ([2]; Table 8, mouse)	microsomal CLint at 1 uM [2, 6]	half-life at 2 uM [3]	Hepatic microsome CLhint (Human) In the absence of NADPH [4]	Hepatic microsome CLhint (Human) In the presence of NADPH [4]	microsomal CLint at 1 uM ([4]; human, microsomes)	Mouse Hepatic Microsome CLh, int [2]	oxidative metabolic rate relative to the parent thioether, small intestinal microsomes [1]	oxidative metabolic rate relative to the parent thioether, mouse hepatic microsomes ([2]; compared with Compound P-112)	microsomal CLint at 1 uM ([2]; Table 8, mouse, read-out: Hepatic Microsome CLhint Mouse)	oxidative metabolic rate relative to the parent thioether, human hepatic microsomes [4]	Hepatic Microsome CLhint Human ([4]; human, microsomes, 1 uM, pH 7.4)
CC(C)C[C@H]1C(=O)N[C@@H](COC(C)(C)C)C(=O)N[C@H](C(=O)N2CCCCC2)CSCC(=O)N(C)[C@@H](C)C(=O)N(C)[C@@H](Cc2ccccc2)C(=O)N(C)[C@@H](CC(C)C)C(=O)N[C@@H]([C@@H](C)O)C(=O)N(C)CC(=O)N1C [Compound P-102, Ac*-MeAla-MePhe-MeLeu-Thr-MeGly-MeLeu-Ser(tBu)-Cys*-piperidine] ({CH2CO}-[NMeA][NMeF][NMeL]T[Sar][NMeL]S(tBu)C-Piperidide; thioether N-8)	79.0 ul/min/mg Protein	0 ul/min/mg Protein	55.1 ul/min/mg Protein	55.1 µL/min/mg	> 60 h	3 ul/min/mg Protein	124 ul/min/mg Protein	124 µL/min/mg	–	–	–	–	–	–
CC[C@H](C)[C@H]1C(=O)N[C@H](C(=O)N2CCCCC2)CSCC(=O)N(C)[C@@H](Cc2ccccc2)C(=O)N(C)[C@@H](CC(C)C)C(=O)N[C@@H]([C@@H](C)O)C(=O)N(C)CC(=O)N(C)[C@@H](CC(C)C)C(=O)N[C@@H](COC(C)(C)C)C(=O)N1C [Compound P-103, Ac*-MePhe-MeLeu-Thr-MeGly-MeLeu-Ser(tBu)-MeIle-Cys*-piperidine] ({CH2CO}-[NMeF][NMeL]T[Sar][NMeL]S(tBu)[NMeI]C-Piperidide; thioether N-8)	66.3 ul/min/mg Protein	11.1 ul/min/mg Protein	63.0 ul/min/mg Protein	63 µL/min/mg	> 60 h	3 ul/min/mg Protein	221 ul/min/mg Protein	221 µL/min/mg	63 ul/min/mg Protein	–	–	–	–	–
CC[C@H](C)[C@H]1C(=O)N[C@H](C(=O)N2CCCCC2)CSCC(=O)N[C@@H](Cc2ccccc2)C(=O)N(C)[C@@H](CC(C)C)C(=O)N[C@@H]([C@@H](C)O)C(=O)N(C)CC(=O)N(C)[C@@H](CC(C)C)C(=O)N[C@@H](COC(C)(C)C)C(=O)N1C [Compound P-107, Ac*-Phe-MeLeu-Thr-MeGly-MeLeu-Ser(tBu)-MeIle-Cys*-piperidine] ({CH2CO}-F[NMeL]T[Sar][NMeL]S(tBu)[NMeI]C-Piperidide; thioether N-8)	–	10.1 ul/min/mg Protein	–	111 µL/min/mg	> 60 h	–	–	–	–	–	–	–	–	–
CC(C)C[C@H]1C(=O)N[C@@H](COC(C)(C)C)C(=O)N[C@H](C(=O)N2CCCCC2)CSCC(=O)N(C)[C@@H](Cc2ccccc2)C(=O)N(C)[C@@H](C)C(=O)N(C)[C@@H](Cc2ccccc2)C(=O)N(C)[C@@H](CC(C)C)C(=O)N[C@@H]([C@@H](C)O)C(=O)N(C)CC(=O)N1C [Compound P-108, Ac*-MePhe-MeAla-MePhe-MeLeu-Thr-MeGly-MeLeu-Ser(tBu)-Cys*-piperidine] ({CH2CO}-[NMeF][NMeA][NMeF][NMeL]T[Sar][NMeL]S(tBu)C-Piperidide; thioether N-9)	–	5.2 ul/min/mg Protein	–	72.3 µL/min/mg	> 60 h	–	–	–	–	–	–	–	–	–
CC(C)C[C@H]1C(=O)N[C@@H](COC(C)(C)C)C(=O)N[C@H](C(=O)N2CCCCC2)CSCC(=O)N(C)[C@@H](Cc2ccccc2)C(=O)N(C)[C@@H](C)C(=O)N[C@@H](Cc2ccccc2)C(=O)N(C)[C@@H](CC(C)C)C(=O)N[C@@H]([C@@H](C)O)C(=O)N(C)CC(=O)N1C [Compound P-110, Ac*-MePhe-MeAla-Phe-MeLeu-Thr-MeGly-MeLeu-Ser(tBu)-Cys*-piperidine] ({CH2CO}-[NMeF][NMeA]F[NMeL]T[Sar][NMeL]S(tBu)C-Piperidide; thioether N-9)	–	6.1 ul/min/mg Protein	–	163 µL/min/mg	> 60 h	–	–	–	–	–	–	–	–	–
CC[C@H](C)[C@H]1C(=O)N[C@H](C(=O)N2CCCCC2)CSCC(=O)N(C)[C@@H](C)C(=O)N[C@@H](Cc2ccccc2)C(=O)N(C)[C@@H](CC(C)C)C(=O)N[C@@H]([C@@H](C)O)C(=O)N(C)CC(=O)N(C)[C@@H](CC(C)C)C(=O)N[C@@H](COC(C)(C)C)C(=O)N1C [Compound P-111, Ac*-MeAla-Phe-MeLeu-Thr-MeGly-MeLeu-Ser(tBu)-MeIle-Cys*-piperidine] ({CH2CO}-[NMeA]F[NMeL]T[Sar][NMeL]S(tBu)[NMeI]C-Piperidide; thioether N-9)	–	0 ul/min/mg Protein	–	76.4 µL/min/mg	> 60 h	–	–	–	76.4 ul/min/mg Protein	–	–	–	–	–
CC[C@H](C)[C@H]1C(=O)N[C@H](C(=O)N2CCCCC2)C[S+]([O-])CC(=O)N(C)[C@@H](C)C(=O)N(C)[C@@H](Cc2ccccc2)C(=O)N(C)[C@@H](CC(C)C)C(=O)N[C@@H]([C@@H](C)O)C(=O)N(C)CC(=O)N(C)[C@@H](CC(C)C)C(=O)N[C@@H](COC(C)(C)C)C(=O)N1C (stereo partly drawn) [Compound P-114, (5S,8S,11S,14S,20S,23S,26S,29R)-8-benzyl-23-(tert-butoxymethyl)-26-((S)-sec-butyl)-14-((R)-1-hydroxyethyl)-11,20-diisobutyl-4,5,7,10,16,19,25-heptamethyl-29-(piperidine-1-carbonyl)-1-thia-4,7,10,13,16,19,22,25,28-nonaazacyclotriacontane-3,6,9,12,15,18,21,24,27-nonone 1-oxide] ([NMeA][NMeF][NMeL]T[Sar][NMeL]S(tBu)[NMeI][Cys(O)(CH2CO)]-Piperidide; lactam N-9)	9.1 ul/min/mg Protein	–	–	–	–	–	–	35.3 µL/min/mg	–	0.2 times	0.6 times	33.7 µL/min/mg	about 0.3 times	–
CC[C@H](C)[C@H]1C(=O)N[C@H](C(=O)N2CCCCC2)CS(=O)(=O)CC(=O)N(C)[C@@H](C)C(=O)N(C)[C@@H](Cc2ccccc2)C(=O)N(C)[C@@H](CC(C)C)C(=O)N[C@@H]([C@@H](C)O)C(=O)N(C)CC(=O)N(C)[C@@H](CC(C)C)C(=O)N[C@@H](COC(C)(C)C)C(=O)N1C [Compound P-115, (5S,8S,11S,14S,20S,23S,26S,29R)-8-benzyl-23-(tert-butoxymethyl)-26-((S)-sec-butyl)-14-((R)-1-hydroxyethyl)-11,20-diisobutyl-4,5,7,10,16,19,25-heptamethyl-29-(piperidine-1-carbonyl)-1-thia-4,7,10,13,16,19,22,25,28-nonaazacyclotriacontane-3,6,9,12,15,18,21,24,27-nonone 1,1-dioxide]	21.8 ul/min/mg Protein	–	42.1 ul/min/mg Protein	–	–	–	–	–	12.1 ul/min/mg Protein	about 0.5 times	–	–	–	61.6 ul/min/mg Protein
